US9718817B2, “Aryl and heteroaryl ether compounds as ROR gamma modulators” (Glenmark Pharmaceuticals S.A., priority 2014, dated 2017)
pIC50: −log10 of the molar value.

Molecular target: T1, GST-tagged ROR gamma ligand binding domain (LBD) (Homo sapiens, UniProt P51449)
T1 construct: purchased Invitrogen
T1 sequence (P51449 269-508 limits assumed): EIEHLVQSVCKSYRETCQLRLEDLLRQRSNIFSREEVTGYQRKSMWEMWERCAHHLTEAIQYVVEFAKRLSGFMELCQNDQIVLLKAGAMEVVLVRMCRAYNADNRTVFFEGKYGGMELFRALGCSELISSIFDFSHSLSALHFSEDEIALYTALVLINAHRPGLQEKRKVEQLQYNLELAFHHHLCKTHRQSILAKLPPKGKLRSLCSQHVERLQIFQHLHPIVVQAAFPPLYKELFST
Test: TR-FRET assay for ROR gamma (LanthaScreen co-activator peptide recruitment)
Format: biochemical
Settings: for pIC50: class symbols, from dose response curve; for inhibition at 1 µM: compound 1 μM; for inhibition at 1 µM / inhibition at 10 µM: TR-FRET ratio 520/495, percent of control; for inhibition at 10 µM: compound 10 μM
In short: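 Antagonist mode: 10 nM GST-RORγ LBD pre-incubated with compound 1 h at 22 °C in 25 mM HEPES pH 7.4, 100 mM NaCl, 5 mM DTT, 0.01% BSA, 4% DMSO final. Then 300 nM fluorescein-D22 co-activator peptide plus 10 nM Tb-anti-GST added, 1 h at room temperature. IC50 by nonlinear regression of the 520/495 TR-FRET ratio as percent of no-compound control.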

CCn1c(C(C)(C)Oc2ccc(NC(=O)Cc3ccc(S(=O)(=O)CC)cc3)cc2)nc2cc(F)ccc21 [Example 15, 2-(4-Ethanesulfonyl-phenyl)-N-{4-[1-(1-ethyl-5-fluoro-1H-benzoimidazol-2-yl)-1-methyl-ethoxy]-phenyl}-acetamide]
pIC50: > 7.30
inhibition at 1 µM: 83%
inhibition at 10 µM: 85.2%

CCN(C(=O)C(C)(C)Oc1ccc(NC(=O)Cc2ccc(S(=O)(=O)CC)cc2)cc1)c1ccc(Cl)cc1Cl [Example 129, N-(2,4-Dichlorophenyl)-N-ethyl-2-(4-(2-(4-(ethylsulfonyl)phenyl)acetamido)phenoxy)-2-methylpropanamide]
inhibition at 1 µM: 2.49%
inhibition at 10 µM: 8.35%

CCS(=O)(=O)c1ccc(CC(=O)Nc2ccc(OC3(c4ccc(Cl)c(F)c4)CCCCC3)c(F)c2)cc1 [Example 122, N-{4-[1-(4-Chloro-3-fluorophenyl)-cyclohexyloxy]-3-fluorophenyl}-2-(4-ethanesulfonyl-phenyl)-acetamide]
pIC50: > 7.30
inhibition at 1 µM: 77.3%
inhibition at 10 µM: 81.2%

CCS(=O)(=O)c1ccc(CC(=O)Nc2ccc(OC(C)(C)Cn3c(C)cc4cc(F)ccc43)c(F)c2)cc1 [Example 108, 2-(4-Ethanesulfonyl-phenyl)-N-{3-fluoro-4-[2-(5-fluoro-2-methyl-indol-1-yl)-1,1-dimethyl-ethoxy]-phenyl}-acetamide]
inhibition at 1 µM: 9.67%
inhibition at 10 µM: 61.4%

CCS(=O)(=O)c1ccc(CC(=O)Nc2ccc(OC3(c4ccc(F)cc4F)CCCCC3)c(F)c2)cc1 [Example 140, N-(4-((1-(2,4-Difluorophenyl)cyclohexyl)oxy)-3-fluorophenyl)-2-(4-(ethylsulfonyl)phenyl)acetamide]
pIC50: > 7.30
inhibition at 1 µM: 69.1%
inhibition at 10 µM: 72.8%

CCn1c(C(C)(C)Oc2ccc(F)c(F)c2)nc2cc(NC(=O)Cc3ccc(S(=O)(=O)CC)cc3)ccc21 [Example 89, N-{2-[1-(3,4-Difluoro-phenoxy)-1-methyl-ethyl]-1-ethyl-1H-benzoimidazol-5-yl}-2-(4-ethanesulfonyl-phenyl)-acetamide]
pIC50: > 7.30
inhibition at 1 µM: 86.5%
inhibition at 10 µM: 95.5%

CCS(=O)(=O)c1ccc(CC(=O)Nc2ccc(OC3(c4ccc(Cl)cc4Cl)CCCCC3)cc2)cc1 [Example 134, N-(4-((1-(2,4-Dichlorophenyl)cyclohexyl)oxy)phenyl)-2-(4-(ethylsulfonyl)phenyl)acetamide]
pIC50: > 7.30
inhibition at 1 µM: 77.3%
inhibition at 10 µM: 81.1%

CCn1c(C2(Oc3ccc(NC(=O)Cc4ccc(S(=O)(=O)CC)cc4)cc3)CC2)nc2ccc(Cl)cc21 [Example 23, N-(4-{[1-(6-Chloro-1-ethyl-1H-benzimidazol-2-yl)cyclopropyl]oxy}phenyl)-2-[4-(ethylsulfonyl)phenyl]acetamide]
pIC50: < 7.00
inhibition at 1 µM: 69.6%
inhibition at 10 µM: 86%

CCN(C(=O)C(C)(C)Oc1ccc(NC(=O)Cc2ccc(S(=O)(=O)CC)cc2)cc1)c1ccc(Cl)cc1 [Example 127, N-(4-Chlorophenyl)-2-{4-[2-(4-ethanesulfonylphenyl)acetylamino]-phenoxy}-N-ethyl-2-methylpropionamide]
inhibition at 1 µM: 68%
inhibition at 10 µM: 75.8%

CCS(=O)(=O)c1ccc(CC(=O)Nc2ccc(OC3(c4ccc(Cl)c(F)c4)CCCC3)cc2)cc1 [Example 120, N-{4-[1-(4-Chloro-3-fluorophenyl)-cyclopentyloxy]-phenyl}-2-(4-ethanesulfonyl-phenyl)-acetamide]
pIC50: > 7.30
inhibition at 1 µM: 84.8%
inhibition at 10 µM: 89.6%

CCS(=O)(=O)c1ccc(CC(=O)Nc2ccc3c(c2)nc(C(C)(C)Oc2ccc(F)cc2F)n3C(C)C)cc1 [Example 117, N-{2-[1-(2,4-Difluoro-phenoxy)-1-methyl-ethyl]-1-isopropyl-1H-benzoimidazol-5-yl}-2-(4-ethanesulfonyl-phenyl)-acetamide]
pIC50: < 7.00
inhibition at 1 µM: 82.7%
inhibition at 10 µM: 86.7%

CCS(=O)(=O)c1ccc(CC(=O)Nc2ccc(OC(C)(C)c3ccc(Cl)cc3F)cc2)cc1 [Example 6, N-(4-{[2-(4-Chloro-2-fluorophenyl)propan-2-yl]oxy}phenyl)-2-[4-(ethylsulfonyl)phenyl]acetamide]
inhibition at 1 µM: 77.5%
inhibition at 10 µM: 83.1%

CCn1c(C(C)(C)Oc2ccc(NC(=O)Cc3ccc(S(=O)(=O)CC)cc3)cc2F)nc2cc(Cl)ccc21 [Example 105, N-{4-[1-(5-Chloro-1-ethyl-1H-benzoimidazol-2-yl)-1-methyl-ethoxy]-3-fluoro-phenyl}-2-(4-ethanesulfonyl-phenyl)-acetamide]
pIC50: > 7.30
inhibition at 1 µM: 83.6%
inhibition at 10 µM: 84.6%

CCS(=O)(=O)c1ccc(CC(=O)Nc2ccc(OC(C)(C)c3ccc(Cl)cc3Cl)c(F)c2)cc1 [Example 96, N-{4-[1-(2,4-Dichloro-phenyl)-1-methyl-ethoxy]-3-fluoro-phenyl}-2-(4-ethanesulfonyl-phenyl)-acetamide]
pIC50: > 7.30
inhibition at 1 µM: 79.3%
inhibition at 10 µM: 79.8%

CCS(=O)(=O)c1ccc(CC(=O)Nc2ccc3c(c2)nc(C(C)(C)Oc2ccc(F)cc2F)n3CC2CC2)cc1 [Example 114, N-{1-Cyclopropylmethyl-2-[1-(2,4-difluoro-phenoxy)-1-methyl-ethyl]-1H-benzoimidazol-5-yl}-2-(4-ethanesulfonyl-phenyl)-acetamide]
pIC50: > 7.30
inhibition at 1 µM: 78.9%
inhibition at 10 µM: 82.6%

CCn1c(C(F)(F)Oc2ccc(F)cc2F)nc2cc(NC(=O)Cc3ccc(S(=O)(=O)CC)cc3)ccc21 [Example 118, N-{2-[(2,4-Difluoro-phenoxy)-difluoromethyl]-1-ethyl-1H-benzoimidazol-5-yl}-2-(4-ethanesulfonyl-phenyl)-acetamide]
inhibition at 1 µM: 5.43%
inhibition at 10 µM: 9.14%

CCS(=O)(=O)c1ccc(CC(=O)Nc2ccc(OC3(c4ccc(Cl)cc4)CCOCC3)cc2)cc1 [Example 37, N-{4-[4-(4-Chlorophenyl)-tetrahydro-pyran-4-yloxy]-phenyl}-2-(4-ethanesulfonyl-phenyl)-acetamide]
pIC50: < 7.00
inhibition at 1 µM: 80.8%
inhibition at 10 µM: 83.2%

CCn1c(C(C)(C)Oc2ccc(NC(=O)Cc3ccc(S(=O)(=O)CC)cc3)cc2)nc2ccc(Cl)cc21 [Example 17, N-(4-{[2-(6-Chloro-1-ethyl-1H-benzimidazol-2-yl)propan-2-yl]oxy}phenyl)-2-[4-(ethylsulfonyl)phenyl]acetamide]
pIC50: > 7.30
inhibition at 1 µM: 88.7%
inhibition at 10 µM: 94.3%

CCS(=O)(=O)c1ccc(CC(=O)Nc2ccc3c(c2)nc(C(C)(C)Oc2ccc(Cl)cc2Cl)n3C)cc1 [Example 84, N-{2-[2-(2,4-Dichlorophenoxy)propan-2-yl]-1-methyl-1H-benzimidazol-5-yl}-2-[4-(ethylsulfonyl)phenyl]acetamide]
pIC50: > 7.30
inhibition at 1 µM: 89.7%
inhibition at 10 µM: 90.2%

CCS(=O)(=O)c1ccc(CC(=O)Nc2ccc(OC3(c4ccc(Cl)c(F)c4)COC3)c(F)c2)cc1 [Example 102, N-{4-[3-(4-Chloro-3-fluoro-phenyl)-oxetan-3-yloxy]-3-fluoro-phenyl}-2-(4-ethanesulfonyl-phenyl)-acetamide]
pIC50: > 7.30
inhibition at 1 µM: 81.7%
inhibition at 10 µM: 84%

CCS(=O)(=O)c1ccc(CC(=O)Nc2ccc(OC(C)(C)c3ccc(C(F)(F)F)cc3)cc2)cc1 [Example 9, 2-[4-(Ethylsulfonyl)phenyl]-N-[4-({2-[4-(trifluoromethyl)phenyl]propan-2-yl}oxy)phenyl]acetamide]
pIC50: > 7.30
inhibition at 1 µM: 86.5%
inhibition at 10 µM: 89%

CCS(=O)(=O)c1ccc(CC(=O)Nc2ccc(OC(C)(C)c3ccc(Cl)cc3Cl)cc2)cc1 [Example 3, N-(4-{[2-(2,4-Dichlorophenyl)propan-2-yl]oxy}phenyl)-2-[4-(ethylsulfonyl)phenyl]acetamide]
pIC50: > 7.30
inhibition at 1 µM: 81.3%
inhibition at 10 µM: 83.4%

CCS(=O)(=O)c1ccc(CC(=O)Nc2ccc(C#CC(C)(C)Oc3ccc(F)cc3Cl)cc2)cc1 [Example 67, N-{4-[3-(2-Chloro-4-fluoro-phenoxy)-3-methyl-but-1-yn-1-yl]-phenyl}-2-(4-ethanesulfonyl-phenyl)-acetamide]
inhibition at 1 µM: 70.5%
inhibition at 10 µM: 75.7%

CCS(=O)(=O)c1ccc(CC(=O)Nc2ccc(OC3(c4ccc(Cl)c(F)c4)CCOCC3)c(F)c2)cc1 [Example 103, N-{4-[4-(4-Chloro-3-fluoro-phenyl)-tetrahydro-pyran-4-yloxy]-3-fluoro-phenyl}-2-(4-ethanesulfonyl-phenyl)-acetamide]
pIC50: > 7.30
inhibition at 1 µM: 73.6%
inhibition at 10 µM: 80.2%

CCS(=O)(=O)c1ccc(CC(=O)Nc2ccc(OC(C)(C)c3ccc(F)cc3Cl)c(F)c2)cc1 [Example 97, N-{4-[1-(2-Chloro-4-fluoro-phenyl)-1-methyl-ethoxy]-3-fluoro-phenyl}-2-(4-ethanesulfonyl-phenyl)-acetamide]
pIC50: > 7.30
inhibition at 1 µM: 80.8%
inhibition at 10 µM: 82.1%

CCS(=O)(=O)c1ccc(CC(=O)Nc2ccc(OC3(c4ccc(Cl)c(F)c4)CC3)cc2)cc1 [Example 50, N-{4-[1-(4-Chloro-3-fluoro-phenyl)-cyclopropoxy]-phenyl}-2-(4-ethanesulfonyl-phenyl)-acetamide]
pIC50: > 7.30
inhibition at 1 µM: 81.3%
inhibition at 10 µM: 87.9%
